Experimental data published in US20150353495A1 (PORTOLA PHARMACEUTICALS, INC., priority 2010, published 2015).

How the values were obtained:
[1] = test system: JAK1/3 signaling to STAT5 in primary T cells; assay: IL2 stimulation of JAK1/3 signaling to STAT5 in primary T cells (pSTAT5 Y694, FACS); type: cell-based; conditions: T-cell; for inhibition at 0.2 µM: 0.2 uM compound, read-out: IL-2/STAT5 Percent Inhibition at 0.2 uM; for inhibition at 1 µM: 1.0 μM compound, read-out: IL-2/STAT5 Percent Inhibition at 1.0 μM
Description: IL2 Stimulation of JAK1/3 Signaling to STAT5 in Primary T Cells:
The effect of JAK inhibitors on cytokine signaling pathways utilizing JAK3 was determined using an IL2 stimulation assay. IL2 engages a receptor complex that contains the IL2 receptor alpha and beta subunits, and the common gamma chain, to initiate activation of JAK1 and JAK3 leading to phosphorylation of STAT5 at tyrosine position 694. Lymphocytes are isolated from heparinized whole blood over a ficoll gradient, then resuspended in tissue culture media containing 10% fetal calf serum at 10×10̂6 cells/ml. 100 μl aliquots are pre-treated for 1 hour with various concentrations of compound, and then stimulated for 12 minutes with 100 U/ml IL2. The signaling reaction is terminated by fixing in 2% paraformaldehyde for 10 minutes at room temperature. Fixed cells are then washed and permeablized by suspension in 50% methanol (in PBS) at −80° C. Following overnight incubation at 4° C., cells are washed and resuspended in PBS containing 0.5% bovine serum albumin containing CD3-APC and pSTAT5 Y694-PE conjugated antibodies. After 1 hour incubation, cells are washed and the extent of STAT5 phosphorlyation in T cells is measured by FACS analysis.

JAK2 = target: T1, JAK2 (Homo sapiens, UniProt O60674); assay: Z'-LYTE kinase assay JAK2; type: biochemical
T1 construct: 5 μl of catalytic domain recombinant Kinase enzyme+Tyr peptide substrate (Invitrogen, CA); purchased Invitrogen
T1 sequence (O60674 849-1124 limits assumed): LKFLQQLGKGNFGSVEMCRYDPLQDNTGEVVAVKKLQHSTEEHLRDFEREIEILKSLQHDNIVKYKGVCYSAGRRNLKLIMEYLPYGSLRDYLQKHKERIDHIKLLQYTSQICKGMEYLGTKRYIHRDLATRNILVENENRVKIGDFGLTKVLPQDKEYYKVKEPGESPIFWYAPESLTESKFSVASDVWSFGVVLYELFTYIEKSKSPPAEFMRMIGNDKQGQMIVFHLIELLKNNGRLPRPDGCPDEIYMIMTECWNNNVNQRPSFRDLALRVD
How it was run: (§1)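 Read-out is FRET fluorescence between coumarin and fluorescein on a Tyr6 peptide, lost when the development protease cleaves unphosphorylated substrate. Kinase reaction used recombinant catalytic domain with ATP, 1 h at room temperature, 1% DMSO.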

JAK1 = target: T2, JAK1 (Homo sapiens, UniProt P23458); assay: Z'-LYTE kinase assay JAK1; type: biochemical
T2 construct: 5 μl of catalytic domain recombinant Kinase enzyme+Tyr peptide substrate (Invitrogen, CA); purchased Invitrogen
T2 sequence (P23458 875-1153 limits assumed): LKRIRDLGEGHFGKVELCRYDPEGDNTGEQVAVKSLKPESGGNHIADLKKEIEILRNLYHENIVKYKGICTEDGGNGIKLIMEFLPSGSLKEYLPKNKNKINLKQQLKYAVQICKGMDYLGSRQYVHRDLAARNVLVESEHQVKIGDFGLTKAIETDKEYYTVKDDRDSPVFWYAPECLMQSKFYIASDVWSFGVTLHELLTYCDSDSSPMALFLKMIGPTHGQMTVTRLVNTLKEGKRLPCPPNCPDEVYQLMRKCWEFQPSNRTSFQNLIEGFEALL
How it was run: as §1

JAK3 = target: T3, JAK3 (Homo sapiens, UniProt P52333); assay: Z'-LYTE kinase assay JAK3; type: biochemical
T3 construct: 5 μl of catalytic domain recombinant Kinase enzyme+Tyr peptide substrate (Invitrogen, CA); purchased Invitrogen
T3 sequence (P52333 822-1111 limits assumed): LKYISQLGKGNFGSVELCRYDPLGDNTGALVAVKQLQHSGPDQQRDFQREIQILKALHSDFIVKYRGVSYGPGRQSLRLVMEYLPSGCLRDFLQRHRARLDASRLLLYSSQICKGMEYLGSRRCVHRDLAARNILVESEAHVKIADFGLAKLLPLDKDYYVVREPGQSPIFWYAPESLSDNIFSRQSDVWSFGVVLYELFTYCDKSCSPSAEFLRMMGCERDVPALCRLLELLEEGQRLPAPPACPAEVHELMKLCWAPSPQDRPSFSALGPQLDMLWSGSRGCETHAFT
How it was run: as §1

TYK2 = target: T4, TYK2 (Homo sapiens, UniProt P29597); assay: Z'-LYTE kinase assay TYK2; type: biochemical
T4 construct: 5 μl of catalytic domain recombinant Kinase enzyme+Tyr peptide substrate (Invitrogen, CA); purchased Invitrogen
T4 sequence (P29597 897-1176 limits assumed): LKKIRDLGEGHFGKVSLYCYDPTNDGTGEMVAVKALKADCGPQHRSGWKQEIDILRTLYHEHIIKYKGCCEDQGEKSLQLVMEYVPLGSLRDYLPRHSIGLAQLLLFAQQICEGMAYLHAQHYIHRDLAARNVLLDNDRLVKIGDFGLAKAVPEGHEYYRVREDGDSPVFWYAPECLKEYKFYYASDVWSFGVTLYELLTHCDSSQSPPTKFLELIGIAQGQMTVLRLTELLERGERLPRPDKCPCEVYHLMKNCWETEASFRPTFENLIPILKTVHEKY
How it was run: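 Recombinant catalytic-domain TYK2 with Tyr6 peptide in Z′-LYTE FRET format, 1% DMSO final, kinase reaction 1 h at room temperature, then protease development 1 h. Fluorescence read at 445/520 nm (excitation 400 nm), percent phosphorylation vs no-inhibitor control, IC50 from 4-parameter logistic fit.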

[2] = test system: JAK1/3 signaling to STAT6 in Ramos B cells; assay: IL4 stimulation of JAK1/3 signaling to STAT6 in Ramos B cells (pSTAT6 Y641, FACS); type: cell-based; conditions: Homo sapiens; for inhibition at 0.2 µM: 0.2 uM compound, read-out: IL-4/STAT6 in Ramos Percent Inhibition at 0.2 uM; for inhibition at 1 µM: 1.0 uM compound, read-out: IL-4/STAT6 in Ramos Percent Inhibition at 1.0 uM
How it was run: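 Ramos cells in 10% FCS medium were pre-treated 1 h with compound, stimulated 15 min with 15 ng IL4, fixed in 2% paraformaldehyde and methanol-permeabilized. Intracellular phospho-STAT6 Y641 was stained with PE-conjugated antibody and quantified by flow cytometry.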

Row | Compound | inhibition at 0.2 µM [1] | inhibition at 1 µM [1] | IC50 (JAK2) | IC50 (JAK1) | IC50 (JAK3) | IC50 (TYK2) | inhibition at 0.2 µM [2] | inhibition at 1 µM [2]
1 | NC(=O)c1cnc(Nc2ccc(F)cc2)cc1NCc1cccc2[nH]ccc12 [Example 319, 4-((1H-indol-4-yl)methylamino)-6-(4-fluorophenylamino)nicotinamide] | 81% | 103% | 0.1 to 1 µM | 0.1 to 1 µM | 0.001 to 0.01 µM | 0.1 to 1 µM | – | –
2 | NC(=O)c1cnc(Nc2ccc(OC(F)F)cc2)cc1NCc1cccc2[nH]ccc12 [Example 321, 4-((1H-indol-4-yl)methylamino)-6-(4-(difluoromethoxy)phenylamino)nicotinamide] | 42% | 94% | 0.1 to 1 µM | 0.1 to 1 µM | 0.01 to 0.1 µM | > 1 µM | – | –
3 | CS(=O)(=O)Nc1ccc(Nc2cc(NCc3ccccc3)c(C(N)=O)cn2)cc1 [Example 389] | 56% | 88% | 0.1 to 1 µM | 0.1 to 1 µM | 0.001 to 0.01 µM | 0.1 to 1 µM | – | –
4 | CCC(=O)N1CCN(c2ccc(Nc3cc(NCc4cccc(F)c4F)c(C(N)=O)cn3)cc2)CC1 [Example 435, 4-(2,3-difluorobenzylamino)-6-(4-(4-propionylpiperazin-1-yl)phenylamino)nicotinamide] | 63% | 102% | 0.01 to 0.1 µM | 0.1 to 1 µM | 0.001 to 0.01 µM | 0.1 to 1 µM | – | –
5 | Cc1cc(Nc2cc(NCc3cccc4ccsc34)c(C(N)=O)cn2)ccc1C(=O)N(C)C [Example 285, 4-(benzo[b]thiophen-7-ylmethylamino)-6-(4-(dimethylcarbamoyl)-3-methylphenylamino)nicotinamide] | 58% | 96% | 0.01 to 0.1 µM | 0.01 to 0.1 µM | < 0.001 µM | 0.1 to 1 µM | – | –
6 | CS(=O)(=O)c1ccc(Nc2cc(NCc3cccc4[nH]ccc34)c(C(N)=O)cn2)cc1 [Example 320, 4-((1H-indol-4-yl)methylamino)-6-(4-(methylsulfonyl)phenylamino)nicotinamide] | 90% | 108% | 0.01 to 0.1 µM | 0.01 to 0.1 µM | 0.001 to 0.01 µM | 0.01 to 0.1 µM | – | –
7 | CCC(=O)N1CCC(c2ccc(Nc3cc(NCc4cccc5[nH]ccc45)c(C(N)=O)cn3)cc2)CC1 [Example 200, 4-((1H-indol-4-yl)methylamino)-6-(4-(1-propionylpiperidin-4-yl)phenylamino)nicotinamide] | 77% | 103% | 0.01 to 0.1 µM | 0.01 to 0.1 µM | 0.001 to 0.01 µM | 0.01 to 0.1 µM | – | –
8 | Cc1cc(Nc2cc(NCc3cccc4ccsc34)c(C(N)=O)cn2)ccc1C(=O)N1CCC1 [Example 457, 6-(4-(azetidine-1-carbonyl)-3-methylphenylamino)-4-(benzo[b]thiophen-7-ylmethylamino)nicotinamide] | 56% | 100% | 0.01 to 0.1 µM | 0.1 to 1 µM | < 0.001 µM | 0.1 to 1 µM | – | –
9 | CN(C)C(=O)c1ccc(Nc2cc(NCc3cccc(-c4ccncc4)c3)c(C(N)=O)cn2)cc1 [Example 412, 6-(4-(dimethylcarbamoyl)phenylamino)-4-(3-(pyridine-4-yl)benzylamino)nicotinamide] | 25% | 59% | 0.1 to 1 µM | 0.1 to 1 µM | 0.001 to 0.01 µM | – | – | –
10 | Cc1cc(Nc2cc(NCc3cccc4cc[nH]c34)c(C(N)=O)cn2)ccc1C(=O)N1CCCC1 [Example 464, 4-((1H-indol-7-yl)methylamino)-6-(3-methyl-4-(pyrrolidine-1-carbonyl)phenylamino)nicotinamide] | 22% | 55% | 0.01 to 0.1 µM | > 1 µM | 0.001 to 0.01 µM | > 1 µM | – | –
11 | COc1ccc(Nc2cc(NCc3cccc4[nH]ccc34)c(C(N)=O)cn2)cc1 [Example 294, 4-((1H-indol-4-yl)methylamino)-6-(4-methoxyphenylamino)nicotinamide] | 75% | 102% | 0.01 to 0.1 µM | 0.01 to 0.1 µM | 0.001 to 0.01 µM | 0.1 to 1 µM | – | –
12 | CC(=O)N1CC(c2ccc(Nc3cc(NCc4cccc5ccsc45)c(C(N)=O)cn3)cc2)C1 [Example 333, 6-(4-(1-acetylazetidin-3-yl)phenylamino)-4-(benzo[b]thiophen-7-ylmethylamino)nicotinamide] | 35% | 84% | 0.01 to 0.1 µM | 0.1 to 1 µM | 0.001 to 0.01 µM | – | – | –
13 | CC(=O)N1CCN(c2ccc(Nc3cc(NCc4ccccc4)c(C(N)=O)cn3)cc2C)CC1 [Example 5, 6-(4-(4-acetylpiperazin-1-yl)-3-methylphenylamino)-4-(benzylamino)nicotinamide] | – | – | 0.1 to 1 µM | 0.1 to 1 µM | 0.001 to 0.01 µM | 0.1 to 1 µM | 37% | 61%
14 | CC(=O)N1CCN(c2ccc(Nc3cc(NCc4cccs4)c(C(N)=O)cn3)cc2)CC1 [Example 122, 6-(4-(4-acetylpiperazin-1-yl)phenylamino)-4-(thiophen-2-ylmethylamino)nicotinamide] | – | – | 0.1 to 1 µM | 0.1 to 1 µM | 0.001 to 0.01 µM | 0.01 to 0.1 µM | 34% | 57%
15 | CC(=O)N1CCC(c2ccc(Nc3cc(NCc4ccccc4F)c(C(N)=O)cn3)cc2)CC1 [Example 115, 6-(4-(1-acetylpiperidin-4-yl)phenylamino)-4-(2-fluorobenzylamino)nicotinamide] | – | – | 0.1 to 1 µM | 0.1 to 1 µM | 0.01 to 0.1 µM | 0.1 to 1 µM | 31% | 64%
16 | N#CCC(=O)N1CCC(c2ccc(Nc3cc(NCc4ccccc4F)c(C(N)=O)cn3)cc2)CC1 [Example 117, 6-(4-(1-(2-cyanoacetyl)piperidin-4-yl)phenylamino)-4-(2-fluorobenzylamino)nicotinamide] | – | – | 0.1 to 1 µM | 0.1 to 1 µM | 0.001 to 0.01 µM | 0.1 to 1 µM | 43% | 67%
17 | NC(=O)c1cnc(Nc2ccc(N3CCN(c4ccccn4)CC3)cc2)cc1NCc1ccccc1 [Example 385] | 37% | 62% | > 1 µM | > 1 µM | 0.01 to 0.1 µM | – | – | –
18 | NC(=O)c1cnc(Nc2ccc(N3CCCCC3=O)cc2)cc1NCc1cccc(F)c1 [Example 64, 4-(3-fluorobenzylamino)-6-(4-(2-oxopiperidin-1-yl)phenylamino)nicotinamide] | – | – | 0.01 to 0.1 µM | 0.1 to 1 µM | 0.001 to 0.01 µM | 0.1 to 1 µM | 32% | 50%
19 | NC(=O)c1cnc(Nc2cccc(OCCN3CCCC3)c2)cc1NCc1ccccc1F [Example 72, 4-(2-fluorobenzylamino)-6-(3-(2-(pyrrolidin-1-yl)ethoxy)phenylamino)nicotinamide] | – | – | 0.1 to 1 µM | 0.1 to 1 µM | 0.001 to 0.01 µM | 0.1 to 1 µM | 27% | 54%
